In patent US20260297085A1, “1 H-PYRROLO[2,3-B]PYRIDIN-4-YL]-2-OXOPYRROLIDINE-3-CARBONITRILE DERIVATIVES AS TYROSINE KINASE 2 (TYK2) INHIBITORS FOR THE TREATMENT OF INFLAMMATORY DISEASES” (BIOGEN MA INC., priority 2023, published 2026) one finds IC50 data, which are given here for 12 compounds.

The target in test [1] is T1, human JAK3 kinase domain (JH1) (Homo sapiens, UniProt P52333).
T1 construct: recombinantly generated catalytic kinase (also known as JH1) domain of human JAK1, JAK2, JAK3 and TYK2
T1 sequence (P52333 822-1111 limits assumed): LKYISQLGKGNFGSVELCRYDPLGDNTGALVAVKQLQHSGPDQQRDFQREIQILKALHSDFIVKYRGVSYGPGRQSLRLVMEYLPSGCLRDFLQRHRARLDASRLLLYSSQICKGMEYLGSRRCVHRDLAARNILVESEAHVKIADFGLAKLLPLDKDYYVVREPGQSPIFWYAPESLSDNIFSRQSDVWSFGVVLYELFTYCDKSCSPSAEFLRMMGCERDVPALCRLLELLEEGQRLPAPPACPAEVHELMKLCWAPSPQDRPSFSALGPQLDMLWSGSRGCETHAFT
The test can be described thus: JH1 biochemical assay for JAK3 (ADP-Glo kinase assay, recombinant JH1 catalytic domain, JAK3-974 peptide, 4 μM ATP). An outline of the steps: (§1)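 Reactions contain 50 μM peptide and run 100 minutes, with enzyme at 4, 0.2, 0.3 and 2 nM for JAK1, JAK2, JAK3 and TYK2. Generated ADP is read by luminescence; IC50 derives from normalized dose-response curves.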
On the technique in general: In ADP-Glo the light output rises with the ADP produced.

The target of test [2] is JAK2 kinase activity on STAT5 in TF1 cells (Homo sapiens, UniProt O60674). The test can be described thus: pSTAT5 cell assay (MSD; TF1 cells, 30 ng/mL IL-3 stimulation). Particulars: 30 ng/mL IL-3, 15 minutes. The format is cell-based. An outline of the steps: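 Serum-starved TF1 cells with native JAK2/STAT5 were pretreated 1 h with compound (10-point four-fold dilutions from 10 μM), then stimulated 15 min with 30 ng/mL IL-3. pSTAT5 in lysates quantified by MSD immunoassay; normalized percent activity fitted to a 4-parameter logistic curve for IC50.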
Sequence of JAK2 kinase activity on STAT5 in TF1 cells (O60674 whole entry): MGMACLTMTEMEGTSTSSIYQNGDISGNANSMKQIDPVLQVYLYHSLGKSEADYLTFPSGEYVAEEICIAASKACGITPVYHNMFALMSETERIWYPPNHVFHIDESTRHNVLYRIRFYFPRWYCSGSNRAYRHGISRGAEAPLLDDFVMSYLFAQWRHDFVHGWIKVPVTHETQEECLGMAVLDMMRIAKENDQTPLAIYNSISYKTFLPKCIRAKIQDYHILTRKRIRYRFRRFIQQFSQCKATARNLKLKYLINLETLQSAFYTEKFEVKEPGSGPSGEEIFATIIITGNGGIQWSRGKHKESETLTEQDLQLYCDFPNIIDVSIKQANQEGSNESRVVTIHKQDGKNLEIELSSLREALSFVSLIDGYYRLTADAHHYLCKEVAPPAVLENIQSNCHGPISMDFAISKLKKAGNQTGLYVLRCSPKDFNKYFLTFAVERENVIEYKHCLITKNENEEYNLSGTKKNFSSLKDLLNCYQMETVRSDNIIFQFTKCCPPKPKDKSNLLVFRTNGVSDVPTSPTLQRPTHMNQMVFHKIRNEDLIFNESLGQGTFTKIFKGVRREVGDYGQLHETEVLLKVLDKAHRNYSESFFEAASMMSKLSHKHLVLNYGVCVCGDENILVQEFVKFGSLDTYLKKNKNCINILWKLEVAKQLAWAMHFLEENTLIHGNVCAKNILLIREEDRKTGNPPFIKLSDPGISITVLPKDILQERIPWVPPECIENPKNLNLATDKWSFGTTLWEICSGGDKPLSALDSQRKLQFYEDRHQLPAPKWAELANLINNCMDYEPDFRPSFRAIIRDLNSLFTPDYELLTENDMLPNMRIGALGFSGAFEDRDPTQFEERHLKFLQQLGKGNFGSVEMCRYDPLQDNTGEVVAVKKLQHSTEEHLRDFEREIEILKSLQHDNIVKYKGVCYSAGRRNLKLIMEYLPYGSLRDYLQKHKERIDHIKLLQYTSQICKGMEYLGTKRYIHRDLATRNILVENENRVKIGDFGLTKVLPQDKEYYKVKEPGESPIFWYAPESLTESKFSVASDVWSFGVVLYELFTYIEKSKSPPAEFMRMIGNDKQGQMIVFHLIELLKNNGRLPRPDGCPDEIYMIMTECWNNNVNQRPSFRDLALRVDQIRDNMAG

The target of test [3] is T2, human JAK1 kinase domain (JH1) (Homo sapiens, UniProt P23458).
T2 construct: recombinantly generated catalytic kinase (also known as JH1) domain of human JAK1, JAK2, JAK3 and TYK2
T2 sequence (P23458 875-1153 limits assumed): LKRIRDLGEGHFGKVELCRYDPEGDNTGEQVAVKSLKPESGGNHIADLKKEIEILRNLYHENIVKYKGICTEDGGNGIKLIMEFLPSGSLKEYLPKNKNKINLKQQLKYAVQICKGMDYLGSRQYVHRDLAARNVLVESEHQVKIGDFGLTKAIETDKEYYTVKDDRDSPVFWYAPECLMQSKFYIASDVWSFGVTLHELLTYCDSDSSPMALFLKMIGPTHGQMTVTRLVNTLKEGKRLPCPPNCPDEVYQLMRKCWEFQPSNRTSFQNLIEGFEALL
The test can be described thus: JH1 biochemical assay for JAK1 (ADP-Glo kinase assay, recombinant JH1 catalytic domain, JAK3-342 peptide, 35 μM ATP). In a few lines: as §1

For test [4], the target named is Tyk2 kinase activity on STAT4 in NK92 cells (Homo sapiens, UniProt P29597). Put plainly: pSTAT4 cell assay (MSD; NK92 cells, 30 ng/mL IL2 stimulation). The format is cell-based. Particulars: 30 ng/mL IL2, 15 minutes. In a few lines: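 Serum-starved NK92 cells were preincubated 1 hr with compound (10-point, four-fold dilutions from 10 μM), then stimulated with 30 ng/mL IL2 for 15 minutes. Lysates were read on an MSD plate assay using anti-STAT4 antibodies, and IC50 came from a 4-parameter logistic fit of normalized percent activity.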
Sequence of Tyk2 kinase activity on STAT4 in NK92 cells (P29597 whole entry): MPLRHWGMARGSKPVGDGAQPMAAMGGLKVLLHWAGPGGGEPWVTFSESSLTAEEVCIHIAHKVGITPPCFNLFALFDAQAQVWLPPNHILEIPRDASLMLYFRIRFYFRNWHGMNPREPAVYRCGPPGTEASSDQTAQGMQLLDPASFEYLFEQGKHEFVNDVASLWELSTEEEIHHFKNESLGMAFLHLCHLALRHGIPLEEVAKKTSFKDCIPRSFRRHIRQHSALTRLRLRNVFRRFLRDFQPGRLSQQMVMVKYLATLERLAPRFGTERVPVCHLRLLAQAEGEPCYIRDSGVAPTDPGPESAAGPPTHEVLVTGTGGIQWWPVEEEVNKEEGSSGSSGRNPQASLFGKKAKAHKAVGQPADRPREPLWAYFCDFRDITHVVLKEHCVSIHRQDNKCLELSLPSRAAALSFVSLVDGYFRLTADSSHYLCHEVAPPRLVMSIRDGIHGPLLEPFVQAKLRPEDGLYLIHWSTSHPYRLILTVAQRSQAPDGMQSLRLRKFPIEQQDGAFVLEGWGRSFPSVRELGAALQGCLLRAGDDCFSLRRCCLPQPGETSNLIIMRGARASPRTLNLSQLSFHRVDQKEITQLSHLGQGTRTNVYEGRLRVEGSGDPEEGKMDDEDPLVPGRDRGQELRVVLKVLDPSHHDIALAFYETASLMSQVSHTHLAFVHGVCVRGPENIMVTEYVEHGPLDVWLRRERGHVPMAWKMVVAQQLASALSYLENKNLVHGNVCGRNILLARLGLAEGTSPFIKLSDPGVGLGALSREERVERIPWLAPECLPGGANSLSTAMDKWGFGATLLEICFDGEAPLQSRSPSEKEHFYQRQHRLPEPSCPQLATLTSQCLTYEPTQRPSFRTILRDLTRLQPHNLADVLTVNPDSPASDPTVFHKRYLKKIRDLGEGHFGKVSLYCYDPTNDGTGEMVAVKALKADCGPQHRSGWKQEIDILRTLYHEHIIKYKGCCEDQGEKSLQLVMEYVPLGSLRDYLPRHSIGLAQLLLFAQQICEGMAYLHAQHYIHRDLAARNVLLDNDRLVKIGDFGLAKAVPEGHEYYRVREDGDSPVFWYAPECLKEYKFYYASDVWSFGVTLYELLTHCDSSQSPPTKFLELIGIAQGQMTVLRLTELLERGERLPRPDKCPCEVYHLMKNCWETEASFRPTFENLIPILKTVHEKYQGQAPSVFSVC

The target in test [5] is T3, human TYK2 kinase domain (JH1) (Homo sapiens, UniProt P29597).
T3 construct: recombinantly generated catalytic kinase (also known as JH1) domain of human JAK1, JAK2, JAK3 and TYK2
T3 sequence (P29597 897-1176 limits assumed): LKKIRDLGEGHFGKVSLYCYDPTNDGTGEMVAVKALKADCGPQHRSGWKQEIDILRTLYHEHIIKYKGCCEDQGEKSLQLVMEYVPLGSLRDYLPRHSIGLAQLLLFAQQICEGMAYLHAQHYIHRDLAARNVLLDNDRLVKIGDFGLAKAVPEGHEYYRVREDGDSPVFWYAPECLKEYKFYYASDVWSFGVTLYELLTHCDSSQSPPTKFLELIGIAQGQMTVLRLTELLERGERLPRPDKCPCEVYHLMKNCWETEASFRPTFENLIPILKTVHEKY
Put plainly: JH1 biochemical assay for TYK2 (ADP-Glo kinase assay, recombinant JH1 catalytic domain, JAK3-974 peptide, 10 μM ATP). In a few lines: as §1

Test [6] deals with T4, human JAK2 kinase domain (JH1) (Homo sapiens, UniProt O60674).
T4 construct: recombinantly generated catalytic kinase (also known as JH1) domain of human JAK1, JAK2, JAK3 and TYK2
T4 sequence (O60674 849-1124 limits assumed): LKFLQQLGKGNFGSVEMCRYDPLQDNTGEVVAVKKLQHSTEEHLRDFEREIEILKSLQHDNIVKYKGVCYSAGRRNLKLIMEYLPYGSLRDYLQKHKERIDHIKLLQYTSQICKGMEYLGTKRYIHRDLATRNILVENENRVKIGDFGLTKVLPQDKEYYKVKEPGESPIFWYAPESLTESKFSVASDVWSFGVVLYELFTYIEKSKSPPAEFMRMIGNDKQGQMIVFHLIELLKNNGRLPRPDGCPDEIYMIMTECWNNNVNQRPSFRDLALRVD
The test can be described thus: JH1 biochemical assay for JAK2 (ADP-Glo kinase assay, recombinant JH1 catalytic domain, JAK3-974 peptide, 15 μM ATP). An outline of the steps: as §1

For test [7], the target named is JAK1 kinase activity on STAT3 in TF1 cells (Homo sapiens, UniProt P23458). The test can be described thus: pSTAT3 cell assay (MSD; TF1 cells, 30 ng/mL IL-6 stimulation). The format is cell-based. Particulars: 30 ng/mL IL-6, 15 minutes. In a few lines: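 Serum-starved TF1 cells were pretreated with compound for 1 hour (10-point, four-fold dilutions from 10 μM), then stimulated with IL-6 for 15 minutes. Lysates were assayed for pSTAT3 by MSD with anti-STAT3 antibodies; IC50 came from a 4-parameter logistic fit of normalized percent activity.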
Sequence of JAK1 kinase activity on STAT3 in TF1 cells (P23458 whole entry): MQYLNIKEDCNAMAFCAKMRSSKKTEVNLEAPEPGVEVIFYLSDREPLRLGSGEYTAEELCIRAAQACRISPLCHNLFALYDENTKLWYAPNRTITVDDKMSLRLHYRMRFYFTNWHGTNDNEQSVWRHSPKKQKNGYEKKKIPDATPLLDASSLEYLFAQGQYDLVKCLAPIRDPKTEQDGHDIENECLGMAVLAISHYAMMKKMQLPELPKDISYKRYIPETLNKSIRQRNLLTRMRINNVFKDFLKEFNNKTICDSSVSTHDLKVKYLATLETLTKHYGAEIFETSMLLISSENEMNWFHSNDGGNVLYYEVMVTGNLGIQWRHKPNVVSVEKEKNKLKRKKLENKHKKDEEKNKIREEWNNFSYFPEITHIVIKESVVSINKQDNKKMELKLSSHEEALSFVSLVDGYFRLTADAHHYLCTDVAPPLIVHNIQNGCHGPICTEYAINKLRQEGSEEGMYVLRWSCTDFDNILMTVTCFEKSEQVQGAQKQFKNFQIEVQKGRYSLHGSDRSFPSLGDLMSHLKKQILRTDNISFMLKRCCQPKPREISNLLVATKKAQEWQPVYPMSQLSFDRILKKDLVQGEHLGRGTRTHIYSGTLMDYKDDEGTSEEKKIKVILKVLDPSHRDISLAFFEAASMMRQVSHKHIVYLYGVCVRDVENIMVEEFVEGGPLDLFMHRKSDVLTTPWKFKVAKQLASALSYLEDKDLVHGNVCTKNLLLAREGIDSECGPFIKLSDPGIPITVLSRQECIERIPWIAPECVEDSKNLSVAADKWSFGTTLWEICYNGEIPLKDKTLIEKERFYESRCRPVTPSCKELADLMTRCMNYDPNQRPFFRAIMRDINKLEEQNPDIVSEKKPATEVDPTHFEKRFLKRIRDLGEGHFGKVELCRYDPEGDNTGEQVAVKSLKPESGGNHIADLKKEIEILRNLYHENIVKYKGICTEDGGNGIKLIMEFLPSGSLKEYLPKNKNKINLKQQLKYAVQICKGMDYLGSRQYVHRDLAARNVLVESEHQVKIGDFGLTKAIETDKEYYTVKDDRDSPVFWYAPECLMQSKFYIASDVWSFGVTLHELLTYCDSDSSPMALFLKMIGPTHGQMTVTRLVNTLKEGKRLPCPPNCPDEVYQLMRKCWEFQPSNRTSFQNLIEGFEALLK

Counter-ions that a name gives are not always drawn.

Broadly, the IC50 is the point on the concentration scale where inhibition reaches its midpoint. Turning to `Cc1c(-c2cc3c(N4C[C@@H](C)[C@@](C#N)(C5CC5)C4=O)ccnn3c2)cnn1C` [Example 166, (3R,4S)-3-cyclopropyl-1-(6-(1,5-dimethyl-1H-pyrazol-4-yl)pyrrolo[1,2-b]pyridazin-4-yl)-4-methyl-2-oxopyrrolidine-3-carbonitrile], the IC50 in test [1] (JH1 kinase domain, ADP-Glo) is 100 to 1000 nM; in test [2], over 10000 nM; in test [3] (JH1 kinase domain, ADP-Glo), 100 to 1000 nM; in test [4] it was over 100 nM; in test [5] (JH1 kinase domain, ADP-Glo), 5 to 20 nM; in test [6] (JH1 kinase domain, ADP-Glo), 100 to 1000 nM. Further, the IC50 in test [7] is over 10000 nM.
`C[C@H]1CN(c2ccnn3cc(-c4cnn(C)c4)cc23)C(=O)[C@]1(C#N)C1CC1` [Example 22, (3R,4R)-3-cyclopropyl-4-methyl-1-(6-(1-methyl-1H-pyrazol-4-yl)pyrrolo[1,2-b]pyridazin-4-yl)-2-oxopyrrolidine-3-carbonitrile]: the IC50 was 1000 to 5000 nM in test [1] (JH1 kinase domain, ADP-Glo); over 10000 nM in test [2]; 1000 to 5000 nM in test [3] (JH1 kinase domain, ADP-Glo); over 100 nM in test [4]; 50 to 100 nM in test [5] (JH1 kinase domain, ADP-Glo); 1000 to 5000 nM in test [6] (JH1 kinase domain, ADP-Glo). For the same compound, in test [7], the IC50 was over 10000 nM.
`Cn1cc(-c2cc3c(N4C[C@@H](C(F)F)[C@@](C#N)(C5CC5)C4=O)ccnn3c2)cn1` (racemic) [Example 153, rac-(3R,4S)-3-cyclopropyl-4-(difluoromethyl)-1-(6-(1-methyl-1H-pyrazol-4-yl)pyrrolo[1,2-b]pyridazin-4-yl)-2-oxopyrrolidine-3-carbonitrile]: the IC50 is 1000 to 5000 nM in test [1] (JH1 kinase domain, ADP-Glo); over 10000 nM in test [2]; 100 to 1000 nM in test [3] (JH1 kinase domain, ADP-Glo); over 100 nM in test [4]; 20 to 50 nM in test [5] (JH1 kinase domain, ADP-Glo); 1000 to 5000 nM in test [6] (JH1 kinase domain, ADP-Glo). Further, the IC50 in test [7] was over 10000 nM.
Take `C[C@@H]1CN(c2nc(-c3cnn(C4CCCC4)c3)cn3ncc(F)c23)C(=O)[C@]1(C#N)C1CC1` [Example 217, (3R,4S)-1-(6-(1-cyclopentyl-1H-pyrazol-4-yl)-3-fluoropyrazolo[1,5-a]pyrazin-4-yl)-3-cyclopropyl-4-methyl-2-oxopyrrolidine-3-carbonitrile]: the IC50 in test [1] (JH1 kinase domain, ADP-Glo) was under 100 nM; in test [2] it was 1000 to 5000 nM; in test [3] (JH1 kinase domain, ADP-Glo) it was under 100 nM; in test [4] it was over 100 nM; in test [5] (JH1 kinase domain, ADP-Glo) it was under 5 nM; in test [6] (JH1 kinase domain, ADP-Glo) it was under 100 nM. Besides, the IC50 in test [7] lay within 100 to 1000 nM.
For `C[C@@H]1CN(c2ccnn3cc(-c4cnn(-c5ccccn5)c4)cc23)C(=O)[C@]1(C#N)C1CC1` [Example 158, (3R,4S)-3-cyclopropyl-4-methyl-2-oxo-1-(6-(1-(pyridin-2-yl)-1H-pyrazol-4-yl)pyrrolo[1,2-b]pyridazin-4-yl)pyrrolidine-3-carbonitrile], the IC50 is 100 to 1000 nM in test [1] (JH1 kinase domain, ADP-Glo); over 10000 nM in test [2]; 100 to 1000 nM in test [3] (JH1 kinase domain, ADP-Glo); over 100 nM in test [4]; under 5 nM in test [5] (JH1 kinase domain, ADP-Glo); 100 to 1000 nM in test [6] (JH1 kinase domain, ADP-Glo). Further, the IC50 in test [7] is 1000 to 5000 nM.
Turning to `C[C@@H]1CN(c2nc(-c3ccc(=O)n(C)c3)cn3nccc23)C(=O)[C@]1(C#N)C1CC1` [Example 245, (3R,4S)-3-cyclopropyl-4-methyl-1-(6-(1-methyl-6-oxo-1,6-dihydropyridin-3-yl)pyrazolo[1,5-a]pyrazin-4-yl)-2-oxopyrrolidine-3-carbonitrile], the half-maximal inhibitory concentration (IC50) in test [1] (JAK3 JH1, ADP-Glo) is under 100 nM; in test [2], 1000 to 5000 nM; in test [3] (JAK1 JH1, ADP-Glo) it was under 100 nM; in test [4] it was 50 to 100 nM; in test [5] (TYK2 JH1, ADP-Glo) it was under 5 nM; in test [6] (JAK2 JH1, ADP-Glo), 100 to 1000 nM. The compound further registered an IC50 in test [7] of 100 to 1000 nM.
In the case of `CC(=O)Nc1cc(-c2cn3nccc3c(N3C[C@@H](C)[C@@](C#N)(C4CC4)C3=O)n2)ccn1` [Example 228, N-(4-(4-((3R,4S)-3-cyano-3-cyclopropyl-4-methyl-2-oxopyrrolidin-1-yl)pyrazolo[1,5-a]pyrazin-6-yl)pyridin-2-yl)acetamide], the 50% inhibitory concentration (IC50) is under 100 nM in test [1] (JAK3 JH1, ADP-Glo); 1000 to 5000 nM in test [2]; under 100 nM in test [3] (JAK1 JH1, ADP-Glo); 50 to 100 nM in test [4]; under 5 nM in test [5] (TYK2 JH1, ADP-Glo); 100 to 1000 nM in test [6] (JAK2 JH1, ADP-Glo). This compound also had an IC50 in test [7] of 100 to 1000 nM.
Turning to `C[C@@H]1CN(c2ccnn3c(F)c(-c4cnn(C)c4)cc23)C(=O)[C@]1(C#N)C1CC1` [Example 28, (3R,4S)-3-cyclopropyl-1-(7-fluoro-6-(1-methyl-1H-pyrazol-4-yl)pyrrolo[1,2-b]pyridazin-4-yl)-4-methyl-2-oxopyrrolidine-3-carbonitrile], the 50% inhibitory concentration (IC50) is over 10000 nM in test [1] (JH1 kinase domain, ADP-Glo); over 10000 nM in test [2]; 1000 to 5000 nM in test [3] (JH1 kinase domain, ADP-Glo); over 100 nM in test [4]; 50 to 100 nM in test [5] (JH1 kinase domain, ADP-Glo); 5000 to 10000 nM in test [6] (JH1 kinase domain, ADP-Glo). The half-inhibitory concentration (IC50) in test [7] was over 10000 nM.
For the compound `C[C@@H]1CN(c2nc(-c3ccnc(F)c3)cn3nccc23)C(=O)[C@]1(C#N)C1CC1` [Example 237, (3R,4S)-3-cyclopropyl-1-(6-(2-fluoropyridin-4-yl)pyrazolo[1,5-a]pyrazin-4-yl)-4-methyl-2-oxopyrrolidine-3-carbonitrile trifluoroacetate], the IC50 in test [1] (JAK3 JH1, ADP-Glo) was 100 to 1000 nM; in test [2], 5000 to 10000 nM; in test [3] (JAK1 JH1, ADP-Glo) it was under 100 nM; in test [4], 50 to 100 nM; in test [5] (TYK2 JH1, ADP-Glo) it was 5 to 20 nM; in test [6] (JAK2 JH1, ADP-Glo), 100 to 1000 nM. Also, the IC50 in test [7] is 100 to 1000 nM.
Regarding `C[C@@H]1CN(c2ccnn3cc(-c4cnn([C@H]5C[C@H](C#N)C5)c4)cc23)C(=O)[C@]1(C#N)C1CC1` [Example 330, (3R,4S)-1-(6-(1-((1r,3R)-3-cyanocyclobutyl)-1H-pyrazol-4-yl)pyrrolo[1,2-b]pyridazin-4-yl)-3-cyclopropyl-4-methyl-2-oxopyrrolidine-3-carbonitrile], the IC50 is under 100 nM in test [1] (JAK3 JH1, ADP-Glo); 1000 to 5000 nM in test [2]; under 100 nM in test [3] (JAK1 JH1, ADP-Glo); 20 to 50 nM in test [4]; under 5 nM in test [5] (TYK2 JH1, ADP-Glo); under 100 nM in test [6] (JAK2 JH1, ADP-Glo). In test [7], the IC50 lay in the range of 1000 to 5000 nM.
As for `C[C@@H]1CN(c2ccnn3cc(-c4cnn(C5CN(C)C5)c4)cc23)C(=O)[C@]1(C#N)C1CC1` [Example 316, (3R,4S)-3-cyclopropyl-4-methyl-1-(6-(1-(1-methylazetidin-3-yl)-1H-pyrazol-4-yl)pyrrolo[1,2-b]pyridazin-4-yl)-2-oxopyrrolidine-3-carbonitrile], the IC50 in test [1] (JAK3 JH1, ADP-Glo) is 100 to 1000 nM; in test [2] it was 5000 to 10000 nM; in test [3] (JAK1 JH1, ADP-Glo), 100 to 1000 nM; in test [4], 50 to 100 nM; in test [5] (TYK2 JH1, ADP-Glo), under 5 nM; in test [6] (JAK2 JH1, ADP-Glo), 100 to 1000 nM. In test [7], the IC50 was in the range of 5000 to 10000 nM.
`C[C@@H]1CN(c2ccnn3cc(-c4cccnc4)cc23)C(=O)[C@]1(C#N)C1CC1` [Example 60, (3R,4S)-3-cyclopropyl-4-methyl-2-oxo-1-(6-(pyridin-3-yl)pyrrolo[1,2-b]pyridazin-4-yl)pyrrolidine-3-carbonitrile]: the concentration for half-maximal inhibition (IC50) was 100 to 1000 nM in test [1] (JH1 kinase domain, ADP-Glo); over 10000 nM in test [2]; 100 to 1000 nM in test [3] (JH1 kinase domain, ADP-Glo); over 100 nM in test [4]; 5 to 20 nM in test [5] (JH1 kinase domain, ADP-Glo); 100 to 1000 nM in test [6] (JH1 kinase domain, ADP-Glo). The same compound yielded a 50% inhibitory concentration (IC50) in test [7] of 1000 to 5000 nM.
